From patent publication US20120264603A1, “ATTACHMENT AND RETENTION FORMULATIONS FOR BIOLOGICALLY ACTIVE ORGANIC COMPOUNDS” (priority 2010, published 2012)

Test: Water solubility of sulfentrazone as a function of pH
Type: physicochemical

Structure (SMILES): Cc1nn(-c2cc(NS(C)(=O)=O)c(Cl)cc2Cl)c(=O)n1C(F)F [sulfentrazone]
- solubility in water (at 7.5 pH): soluble in water
- solubility in water (pH ~5): sparingly soluble in water
